Test results from US7199162B1, “Use of treosulfan for patient conditioning before bone marrow or blood stem cell transplantation” (Medac Gesellschaft fur Klinische Spezialpraparate mbH, priority 1999, dated 2007).

What was measured:
water solubility = assay type: physicochemical
[1] = test system: donor-type chimerism in the recipient; experiment: H-2-compatible allogenic bone-marrow transplantation trial (C.B10→B6); assay type: in vivo, mice; conditions: substance alone, treosulfan in fractionated doses
Experimental: Treosulfan administered in fractionated doses was also evaluated in an H-2-compatible allogenic bone-marrow transplantation trial (C.B10→B6). In this trial, an immunological reaction resulting in rejection of the transplant must be prevented by conditioning with e.g. treosulfan, before growth of the transplant is possible.

[2] = non-haematological toxicity profile; conditions: general statement, in contrast to busulfan
[3] = pharmacokinetic properties after intravenous administration
[4] = test system: haematopoietic stem cells in the host bone marrow; experiment: cobblestone area forming cell assay (CAFC) on host bone marrow 24 hours after administration, murine bone-marrow transplantation model; assay type: in vivo; conditions: recipient mice (BG-Gpi-1b), 3×2500 mg/kg daily fractionation, CAFC 24 hours after administration
Experimental: The recipient mice (BG-Gpi-1^b) were treated with 3×2500 mg/kg or 7500 mg/kg (corresponding to 22.5 g/m^2) treosulfan or 50 mg/kg busulfan. 24 hours after administration the elimination of the different haematopoietic stem cells in the host bone marrow was ascertained using the in vitro cobblestone area forming cell assays (CAFC; cf. Ploemacher et al., Blood 78 (1991) 2527–2533).

Row | SMILES | water-solubility (water solubility) | induction of donor-type chimerism / conditioning before allogenic bone-marrow transplantation [1] | non-haematological toxicity (liver, kidney, CNS, lung) [2] | pharmacokinetic properties [3] | elimination of both the primitive and the "committed" progenitor cells [4]
1 | CS(=O)(=O)OCCCCOS(C)(=O)=O [busulfan] | low solubility | unable to bring about effective conditioning |  |  | 
2 | CS(=O)(=O)OC[C@H](O)[C@@H](O)COS(C)(=O)=O [treosulfan[…]] | consistent high water-solubility | almost complete and stable donor-type chimerism | no significant liver, kidney, CNS or lung toxicity | reliable and linear pharmacokinetic properties | 3 to 5 powers of ten
